Source: patent US20070259935A1, “CRYSTALLINE FORMS OF LETROZOLE AND PROCESSES FOR MAKING THEM” (priority 2006, published 2007)
Entries after “also recorded” stand apart in the source; their conditions may differ.

Experiments:
[1] = Crystal form conversion during annealing; type: physicochemical; conditions: annealing above 140° C.
[2] = Crystal form conversion on stirring in solvent; type: physicochemical
[3] = Relative stability of the crystalline forms (cooling rate observations in toluene); type: physicochemical; conditions: concluded from slow versus faster cooling in toluene and the conversion observations
Excerpt: Slow cooling a solution of letrozole in toluene gave mainly Form I, whereas faster cooling a solution in toluene gave Form II.
Indeed, due to the relative instability of Form II, the use of Form II or a mixture of Forms I and II could be liable to conversion during storage to form some or more Form I, respectively. Such a variation in crystalline form is generally undesirable in pharmaceuticals as the different forms can have different properties, e.g. bio-absorption, solubility, degradation, etc. Thus, while the use of either crystalline form in a pharmaceutical composition is contemplated, making the composition from a crystalline letrozole that has an XRPD substantially corresponding to FIG. 1 is preferred.

[4] = cited from earlier work

Row | conversion of crystalline form during annealing [1] | conversion of crystalline form when stirred in ethanol ([2]; stirred in ethanol at room temperature) | conversion of crystalline form when stirred in a solvent for 2 weeks ([2]; stirred in a solvent for 2 weeks) | conversion of crystalline form when stirred in various solvents ([2]; stirred in various solvents) | SMILES | kinetic versus thermodynamic form / relative stability [3] | solubility in dichloromethane ([4]; dichloromethane) | solubility in ethanol ([4]; ethanol) | solubility in water ([4]; water)
1 | (partially) converted into form I | (partially) converted into Form I |  |  | N#Cc1ccc(C(c2ccc(C#N)cc2)n2cncn2)cc1 [Form II, 4,4′-(H-1,2,4-Triazol-1-ylmethylene)dibenzonitrile] | kinetic form; also recorded: generally less stable than the Form I |  |  | 
2 |  |  |  |  | N#Cc1ccc(C(c2ccc(C#N)cc2)n2cncn2)cc1 [Letrozole, 4,4′-(H-1,2,4-Triazol-1-ylmethylene)dibenzonitrile] |  | freely soluble | slightly | practically insoluble
3 | does not convert |  | does not convert into Form II | does not convert | N#Cc1ccc(C(c2ccc(C#N)cc2)n2cncn2)cc1 [Form I, 4,4′-(H-1,2,4-Triazol-1-ylmethylene)dibenzonitrile] | thermodynamically stable form |  |  | 
